# Measured values from patent publication US9493460B2, “Diimide compounds” (UCL BUSINESS PLC, priority 2013, dated 2016).
# Key:
# [1] = tested on: Mia-Paca2 human pancreatic tumour xenografts; test: MiaPaca-2 tumour xenograft; type: in vivo, CD1 nu/nu female mice
# Experimental: CD1 nu/nu female mice (7-8 weeks old) were housed in microisolator cages, fed with commercial mouse food (Food Harlam 2018, Madison, USA) and allowed to acclimatise for seven days before any procedure. Exponentially growing MiaPaca-2 cells (5×10^6 cell/100 uL unsupplemented RPMI) were inoculated subcutaneously into the right flank (100 uL per mice). Measurements of tumour growth were carried out at least twice a week with digital callipers until tumour masses reached an average size of 0.1 cm^3. Tumour volume was calculated by using the standard formula for determining the volume of an ellipsoid ([length×width×depth×π]/6)).
# In a first experiment, mice were allocated into groups (six mice per group) as follows: control group (IV 100 uL/10g sterile PBS) and single dose of 20 mg/kg of 3d (IV 100 uL/10 g body weight in sterile PBS).
# In a subsequent experiment using CD1 nu/nu female mice as described above, mice were allocated into groups (six mice per group) as follows: control group (IV 100 uL/10 g sterile PBS) and 3d at 15 mg/kg given once weekly. […] In the control group the median time to endpoint was 42 days compared to 79 days in the treated group.
# [2] = tested on: telomerase; test: TRAP-LIG cellular telomerase activity assay; type: cell-based, human; details: at the doses relevant to the IC50 values
# Experimental: FIG. 1. Gel showing telomerase activity in MIA-Pa-Ca-2 cells treated with compound 3h after seven days of treatment. Lane 1; untreated cells, lanes 2-4; cells treated increasing concentrations of 3h. Telomerase activity was assessed using the TRAP-LIG assay as described in Materials and Methods. Compound concentrations are indicated. Neg; untreated cells, Pos; positive control. Neg: negative control with telomerase but no ligand.
# Telomerase activity was determined using the TRAP-LIG assay, a modified telomere repeat amplification protocol that ensures that there is no carry-over of ligand into the second PCR step of the assay. Briefly, 1 μg of protein from untreated and treated cells were incubated with TS forward primer (0.1 μg of 5′-AAT CCG TCG AGC AGA GTT-3′) at 30° C. for 10 min to allow the initial elongation to take place. Elongated products were purified using the QIAquick nucleotide purification kit (Qiagen) according to the manufacturer's instructions. Eluted samples were freeze-dried and re-dissolved in PCR grade water. Re-dissolved PCR products were subjected to amplification in master mix containing ACX reverse primer (1 μM, 5′-GCG CGG [CTTACC]3 CTA ACC-3′), TS forward primer (0.1 μg), TRAP buffer, BSA (5 μg), 0.5 mM dNTPs, and 2U RedHot TAQ polymerase (ABgene, U.K.) for 35 cycles of 94° C. for 30 s, 61° C. for 1 min, and at 72° C. for 1 min. […]
# [3] = tested on: Panc1 (pancreatic) cells; test: SRB growth inhibition assay, 96 hr exposure, Panc1; type: cell-based, human; details: Homo sapiens, PANC-1, 96 h exposure
# Outline: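 SRB growth inhibition was measured after 96 h exposure to 2-fold serial dilutions of compound, with cells maintained at 37 °C in 5% CO2 and medium containing 10% FBS. Absorbance at 540 nm was expressed as a percentage of untreated control wells. IC50 was derived from these values.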
# [4] = tested on: 83 human genes involved in telomere replication and maintenance in Mia-PaCa2 cells; test: qPCR array, telomere replication and maintenance genes; type: cell-based
# Experimental: Following compound exposure, cells were washed twice in PBS, harvested by trypsinisation, collected by centrifugation (300 g, 5 min, 4° C.) and re-suspended in RLT buffer (Qiagen). Samples were homogenised using QIAshredder spin columns and stored at −80° C. prior to RNA extraction. Three biological replicates were performed on separate days.
# The expression of (i) 83 key human genes involved in telomere replication and maintenance, and (ii) 83 human genes involved in DNA damage signaling responses, was assessed using PCR arrays (SABiosciences). Total RNA was extracted from approximately 1×10^7 Mia-PaCa2 cells treated for 24 h with compound 3d, using the RNeasy kit (Qiagen) with on-column DNaseI treatment to remove residual genomic DNA. The quality of the harvested RNA was confirmed by nanodrop spectroscopy and by analysis with a Human RT^2 RNA QC PCR Array. First-strand cDNA synthesis was performed with the RT^2 first strand kit and qPCR was carried out using the RT^2 qPCR master mix (Qiagen) using 0.5 μg total RNA per array plate in a Stratagene MX-3000P instrument (Agilent, USA). Relative gene expression was determined by the ΔΔCT method using the web-based RT^2 Profiler™ PCR Array Data Analysis software (SABiosciences). Data were normalized to the geometric mean of five housekeeping genes (RPLP10, β-actin, B2M, GAPDH and HPRT1).
# Dose-response curves were used to guide the choice of compound concentration and time-points for the array experiments (FIG. 2a). […] To explore this response continuum the transcriptional signature of cells exposed for 24 h to 20 nM, 40 nM, 80 nM concentrations of 3d, or solvent alone as control, was analysed as described in Materials and Methods.
# However, changes in transcript abundance were modest, with only seven of these genes (MYC, NHP2, PPARG, PRKCB, PTEGES3, RASSF1 and SLX4) showing greater than two-fold abundance changes (FIGS. 2d and 2e).
# [5] = Pharmacokinetics after bolus IV injection; type: in vivo, Balb/c female mice; details: bolus IV 20 mg/kg, mice
# Source text: Balb/c female mice (7-8 weeks old) were housed in microisolator cages, fed with commercial mouse food (Food Harlam 2018, Madison, USA) and allowed to acclimatise for seven days before any procedure.
compound,measurement,setting,value
"CN1CCN(CCCNc2cc3c4c(c(NCCCN5CCN(C)CC5)cc5c4c2C(=O)N(CCCN2CCOCC2)C5=O)C(=O)N(CCCN2CCOCC2)C3=O)CC1 [Compound 3d, 4,9-bis((3-(4-methylpiperazin-1-yl)propyl)amino)-2,7-bis(3-morpholinopropyl)benzo[lmn][3,8]phenanthroline-1,3,6,8(2H,7H)-tetraone]",antitumour response,[1]; 15 mg/kg once weekly,sustained antitumour response
same,median time to endpoint,"[1]; 15 mg/kg once weekly, control group 42 days",79 days
same,"mice with a complete response, tumour free at 136 days","[1]; 15 mg/kg once weekly, of six mice",two
same,tumour growth compared to untreated controls,[1]; single dose 20 mg/kg IV,significant growth delay
same,telomerase activity inhibition,[2],not inhibitors of telomerase activity
same,IC50,[3],0.01 to 0.02 µM
same,number of telomere maintenance genes with greater than two-fold abundance changes,"[4]; 20, 40 or 80 nM, 24 h",seven
same,expression of the gene encoding POT1,[4]; borderline of statistical significance,down-regulation
same,number of telomere maintenance genes up or down-regulated to a statistically significant level (P<0.05),"[4]; of 83 genes, 20, 40 or 80 nM, 24 h",30 genes
same,drug level at 24 hours,[5],no detectable drug
same,Cmax,"[5]; female, Balb/c, mouse, in vivo",1.6 µM
same,half-life,"[5]; female, Balb/c, mouse, in vivo",4 h
